Source: patent US20060063784A1, “Method of using substituted pyrazolo [1,5-a] pyrimidines” (priority 2004, published 2006)
Read-outs that look alike come from different tables or passages of the source.

Assays:
[1] = system: 80S14 (p21-deficient) cells; test: Cytotoxicity assay using isogenic cell lines: IC50 in 80S14 (p21-deficient) cells, SRB; type: cell-based, human
In short: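 IC50 is the concentration halving proliferation relative to untreated controls, read from SRB absorbance (560 nm) after TCA fixation. Test agent dilutions (5 pM–50 μM or 170 pg/ml–10 μg/ml) were left on p21-deficient 80S14 cells (12,000/well, pre-incubated overnight) for 5 days at 37 °C.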

LoVo Colon cell line = test: Cytotoxicity assay using LoVo colon cell line, SRB; type: cell-based; conditions: read-out: Inhibition of LoVo
In short: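 Growth inhibition read by sulforhodamine B after 4-day compound exposure at 37 °C. Colon LoVo cells plated at 4000 per well in RPMI/10% FBS a day earlier; doses ranged 5 pM-20 μM or 170 pg/ml-10 μg/ml. IC50 is the concentration halving proliferation versus untreated wells.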

[2] = Homo sapiens, 120 h, 80S14 (p21-deficient) cells, 5 days, SRB, class symbols, read-out: IC50 for 80S14
[3] = Homo sapiens, 96 h, Cellular activity in LoVo cell, 4 days incubation, SRB
[4] = Homo sapiens, 120 h, 80S14 p21-deficient cells, 5 days incubation, SRB, read-out: IC50 for 80SI4
[5] = Homo sapiens, 96 h, LoVo colon cells, 4 days incubation, SRB
[6] = 80S14 (p21-deficient) cells, 5 days, SRB, class symbols, read-out: IC50 for 80S14
[7] = Cellular activity in LoVo cell, 4 days incubation, SRB

| Compound | IC50 [1, 2] | IC50 (LoVo Colon cell line; [3]) | further results |
| --- | --- | --- | --- |
| O=Cc1ccc(-c2cccc(-c3ccnc4c(C(=O)c5cccs5)cnn34)c2)cc1 [Example 458, 3′-[3-(Thien-2-ylcarbonyl)pyrazolo[1,5-a]pyrimidin-7-yl]-1,1′-biphenyl-4-carbaldehyde] | 1 to 10 µM | 0.1 to 1 µM |  |
| O=C(Nc1cccc(-c2ccnc3c(C(=O)c4cccs4)cnn23)c1)c1ccc(-n2cccc2)cc1 [Example 383, 4-(1H-pyrrol-1-yl)-N-{3-[3-(thien-2-ylcarbonyl)pyrazolo[1,5-a]pyrimidin-7-yl]phenyl}benzamide] | 1 to 10 µM | 0.1 to 1 µM |  |
| O=C(Nc1cccc(-c2ccnc3c(C(=O)c4cccs4)cnn23)c1)NC1CCCC1 [Example 162, N-cyclopentyl-N′-{3-[3-(thien-2-ylcarbonyl)pyrazolo[1,5-a]pyrimidin-7-yl]phenyl}urea] |  |  | IC50 [1, 4]: < 1 µM; IC50 (LoVo Colon cell line; [5]): < 0.1 µM |
| C=CCCOC(=O)Nc1cccc(-c2cc(C)nc3c(C(=O)c4cccs4)cnn23)c1 [Example 199, but-3-enyl 3-[5-methyl-3-(thien-2-ylcarbonyl)pyrazolo[1,5-a]pyrimidin-7-yl]phenylcarbamate] |  |  | IC50 [1, 4]: < 1 µM; IC50 (LoVo Colon cell line; [5]): < 0.1 µM |
| N-{3-[6-methyl-3-(thien-2-ylcarbonyl)pyrazolo[1,5-a]pyrimidin-7-yl]phenyl}cycopropanecarboxamide [Example 217] |  |  | IC50 ([1]; 80S14 p21-deficient cells, 5 days incubation, SRB, read-out: IC50 for 80SI4): 10 to 50 µM; IC50 (LoVo Colon cell line; LoVo colon cells, 4 days incubation, SRB): < 0.1 µM |
| O=C(c1cccs1)c1cnn2c(-c3cccc(NCC=C(c4ccccc4)c4ccccc4)c3)ccnc12 [Example 399, (7-{3-[(3,3-Diphenylprop-2-enyl)amino]phenyl}pyrazolo[1,5-a]pyrimidin-3-yl)(thien-2-yl)methanone] | 10 to 50 µM | 1 to 20 µM |  |
| O=C(c1cccs1)c1cnn2c(-c3cccc(NC(=O)N4CCCCC4)c3)ccnc12 [Example 155, N-{3-[3-(thien-2-ylcarbonyl)pyrazolo[1,5-a]pyrimidin-7-yl]phenyl}piperidine-1-carboxamide] |  |  | IC50 [1, 4]: < 1 µM; IC50 (LoVo Colon cell line; [5]): < 0.1 µM |
| CC(C)CC(=O)Nc1cccc(-c2ccnc3c(-c4ccc(Cl)cc4)cnn23)c1 [Example 472, N-{3-[3-(4-Chlorophenyl)pyrazolo[1,5-a]pyrimidin-7-yl]phenyl}-3-methylbutanamide] | 10 to 50 µM | 1 to 20 µM |  |
| CC(C)CC(=O)Nc1cccc(-c2ccnc3c(-c4ccc(Oc5ccccc5)cc4)cnn23)c1 [Example 480, 3-Methyl-N-{3-[3-(4-phenoxyphenyl)pyrazolo[1,5-a]pyrimidin-7-yl]phenyl}butanamide] | 10 to 50 µM | 1 to 20 µM |  |
| CC(C)=CCNc1cccc(-c2ccnc3c(C(=O)c4cccs4)cnn23)c1 [Example 371, (7-{3-[(3-Methylbut-2-enyl)amino]phenyl}pyrazolo[1,5-a]pyrimidin-3-yl)(thien-2-yl)methanone] | < 1 µM | < 0.1 µM |  |
| [7-[3-(2-Methyl-1H-imidazol-1-yl)phenyl]-pyrazolo[1,5-a]pyrimidin-3-vy]-2-thienyl-methanone [Example 245] |  |  | IC50 [1, 6]: 10 to 50 µM; IC50 (LoVo Colon cell line; [7]): 1 to 20 µM |
| CC(C)CC(=O)Nc1cccc(-c2ccnc3c(-c4cccc(N(C)C)c4)cnn23)c1 [Example 465, N-(3-{3-[3-(Dimethylamino)phenyl]pyrazolo[1,5-a]pyrimidin-7-yl}phenyl)-3-methylbutanamide] | < 1 µM | < 0.1 µM |  |
| O=C(Nc1cccc(-c2ccnc3c(C(=O)c4cccs4)cnn23)c1)c1ccccn1 [Example 360, N-{3-[3-(Thien-2-ylcarbonyl)pyrazolo[1,5-a]pyrimidin-7-yl]phenyl}pyridine-2-carboxamide] | < 1 µM | < 0.1 µM |  |
| O=C(Nc1cccc(-c2ccnc3c(C(=O)c4cccs4)cnn23)c1)OCCCN1CCOCC1 [Example 425, 3-Morpholin-4-ylpropyl 3-[3-(thien-2-ylcarbonyl)pyrazolo[1,5-a]pyrimidin-7-yl]phenylcarbamate] | 1 to 10 µM | 0.1 to 1 µM |  |
| tert-Butyl 4-[2-oxo-2-({3-[3-(thien-2-ylcarbonyl)pyrazolo[1.5-a]pyrimidin-7-yl]phenyl}amino)ethyl]piperidine-1-carboxylate [Example 392] |  |  | IC50 [1, 6]: < 1 µM; IC50 (LoVo Colon cell line; [7]): < 0.1 µM |
| C=CCOC(=O)Nc1cccc(-c2cc(C)nc3c(C(=O)c4cccs4)cnn23)c1 [Example 196, allyl 3-[5-methyl-3-(thien-2-ylcarbonyl)pyrazolo[1,5-a]pyrimidin-7-yl]phenylcarbamate] |  |  | IC50 [1, 4]: < 1 µM; IC50 (LoVo Colon cell line; [5]): 0.1 to 1 µM |

| Compound | IC50 [1, 2] | IC50 (LoVo Colon cell line; [3]) | further results |
| --- | --- | --- | --- |
| CCCCCCCCCC(C)CNc1cccc(-c2ccnc3c(C(=O)c4cccs4)cnn23)c1 (stereo not shown) [Example 447, (7-{3-[(2-Methylundecyl)amino]phenyl}pyrazolo[1,5-a]pyrimidin-3-yl)(thien-2-yl)methanone] | 10 to 50 µM | 1 to 20 µM |  |
| O=C(c1cccs1)c1cnn2c(-c3ccc(F)c(N(C(=O)c4ccccc4Cl)C(=O)c4ccccc4Cl)c3)ccnc12 [Example 438, 2-Chloro-N-(2-chlorobenzoyl)-N-{2-fluoro-5-[3-(thien-2-ylcarbonyl)pyrazolo[1,5-a]pyrimidin-7-yl]phenyl}benzamide] | < 1 µM | < 0.1 µM |  |
| CC(C)CC(=O)Nc1cccc(-c2ccnc3c(-c4cccc(Cl)c4)cnn23)c1 [Example 471, N-{3-[3-(3-Chlorophenyl)pyrazolo[1,5-a]pyrimidin-7-yl]phenyl}-3-methylbutanamide] | 10 to 50 µM | 1 to 20 µM |  |
| O=C(Nc1cccc(-c2ccnc3c(C(=O)c4cccs4)cnn23)c1)OC1CCCC1 [Example 171, cyclopentyl 3-[3-(thien-2-ylcarbonyl)pyrazolo[1,5-a]pyrimidin-7-yl]phenylcarbamate] |  |  | IC50 [1, 4]: < 1 µM; IC50 (LoVo Colon cell line; [5]): < 0.1 µM |
| O=C(Nc1cccc(-c2ccnc3c(C(=O)c4cccs4)cnn23)c1)OCc1ccccn1 [Example 429, Pyridin-2-ylmethyl 3-[3-(thien-2-ylcarbonyl)pyrazolo[1,5-a]pyrimidin-7-yl]phenylcarbamate] | 1 to 10 µM | 0.1 to 1 µM |  |
| O=C(CC1CC1)Nc1cccc(-c2ccnc3c(C(=O)c4cccs4)cnn23)c1 [Example 72, 2-cyclopropyl-N-{3-[3-(thien-2-ylcarbonyl)pyrazolo[1,5-a]pyrimidin-7-yl]phenyl}acetamide] |  |  | IC50 [1, 4]: < 1 µM; IC50 (LoVo Colon cell line; [5]): 0.1 to 1 µM |
| O=C(c1cccs1)c1cnn2c(-c3cccc(-c4nnn(CCN5CCOCC5)n4)c3)ccnc12 [Example 507, (7-{3-[2-(2-Morpholin-4-ylethyl)-2H-tetraazol-5-yl]phenyl}pyrazolo[1,5-a]pyrimidin-3-yl)(thien-2-yl)methanone] | 1 to 10 µM | 0.1 to 1 µM |  |
| Thienylcarbonyl)pyrazolo[1,5-a]pyrimidin-7-yl]phenyl}cyclobutanecarboxamide [Example 275] |  |  | IC50 [1, 6]: < 1 µM; IC50 (LoVo Colon cell line; [7]): < 0.1 µM |
| CC(C)CC(=O)Nc1cc(-c2ccnc3c(C(=O)c4cccs4)cnn23)ccc1Cl [Example 313, N-{2-Chloro-5-[3-(2-thienylcarbonyl)pyrazolo[1,5-a]pyrimidin-7-yl]phenyl}-3-Methylbutanamide] |  |  | IC50 ([1]; Homo sapiens, 80S14, 120 h, read-out: IC50 for 80S14 (uM)): < 1 µM; IC50 (LoVo Colon cell line; Homo sapiens, LoVo, 96 h): < 0.1 µM |
| CC(C)CC(=O)Nc1cccc(-c2ccnc3c(-c4ccc(-c5ccccc5)cc4)cnn23)c1 [Example 486, N-{3-[3-(1,1′-Biphenyl-4-yl)pyrazolo[1,5-a]pyrimidin-7-yl]phenyl}-3-methylbutanamide] | 10 to 50 µM | 1 to 20 µM |  |
| O=C(c1cccs1)c1cnn2c(-c3cccc(NC(=O)N4CCCC4)c3)ccnc12 [Example 170, N-{3-[3-(thien-2-ylcarbonyl)pyrazolo[1,5-a]pyrimidin-7-yl]phenyl}pyrrolidine-1-carboxamide] |  |  | IC50 [1, 4]: 1 to 10 µM; IC50 (LoVo Colon cell line; [5]): 0.1 to 1 µM |
| CC/C=C(\C)CNc1cccc(-c2ccnc3c(C(=O)c4cccs4)cnn23)c1 [Example 426, [7-(3-{[(2E)-2-Methylpent-2-enyl]amino}phenyl)pyrazolo[1,5-a]pyrimidin-3-yl](thien-2-yl)methanone] | 1 to 10 µM | 0.1 to 1 µM |  |
| Cc1cc(C)cc(-c2cnn3c(-c4cccc(-c5nnn(CCN6CCOCC6)n5)c4)ccnc23)c1 [Example 493, 3-(3,5-Dimethylphenyl)-7-{3-[2-(2-morpholin-4-ylethyl)72H-tetraazol-5-yl]phenyl}pyrazolo[1,5-a]pyrimidine] |  |  | IC50 [1, 6]: 1 to 10 µM; IC50 (LoVo Colon cell line; [7]): 0.1 to 1 µM |
| Cc1cc(C)cc(-c2cnn3c(-c4cccc(C#N)c4)ccnc23)c1 [Example 490, 3-[3-(3,5-Dimethylphenyl)pyrazolo[1,5-a]pyrimidin-7-yl]benzonitrile] | 10 to 50 µM | 1 to 20 µM |  |
| O=C(c1cccs1)c1cnn2c(-c3cccc(NCc4ccco4)c3)ccnc12 [Example 367, (7-{3-[(2-Furylmethyl)amino]phenyl}pyrazolo[1,5-a]pyrimidin-3-yl)(thien-2-yl)methanone] | 1 to 10 µM | 0.1 to 1 µM |  |
| O=C(CC1CC2CCC1C2)Nc1cccc(-c2ccnc3c(C(=O)c4cccs4)cnn23)c1 (stereo not shown) [Example 76, 2-bicyclo[2.2.1]hept-2-yl-N-{3-[3-(thien-2-ylcarbonyl)pyrazolo[1,5-a]pyrimidin-7-yl]phenyl}acetamide] |  |  | IC50 [1, 4]: < 1 µM; IC50 (LoVo Colon cell line; [5]): < 0.1 µM |
